{
  "source": "ChEMBL document CHEMBL1136959",
  "about": "“Hit-to-lead optimization of pyrrolo[1,2-a]quinoxalines as novel cannabinoid type 1 receptor antagonists” (Bioorg Med Chem Lett, 2009)",
  "data": [
    {"target": "Cannabinoid receptor 1 (Rattus norvegicus, UniProt P20272)", "sequence (P20272 whole entry)": "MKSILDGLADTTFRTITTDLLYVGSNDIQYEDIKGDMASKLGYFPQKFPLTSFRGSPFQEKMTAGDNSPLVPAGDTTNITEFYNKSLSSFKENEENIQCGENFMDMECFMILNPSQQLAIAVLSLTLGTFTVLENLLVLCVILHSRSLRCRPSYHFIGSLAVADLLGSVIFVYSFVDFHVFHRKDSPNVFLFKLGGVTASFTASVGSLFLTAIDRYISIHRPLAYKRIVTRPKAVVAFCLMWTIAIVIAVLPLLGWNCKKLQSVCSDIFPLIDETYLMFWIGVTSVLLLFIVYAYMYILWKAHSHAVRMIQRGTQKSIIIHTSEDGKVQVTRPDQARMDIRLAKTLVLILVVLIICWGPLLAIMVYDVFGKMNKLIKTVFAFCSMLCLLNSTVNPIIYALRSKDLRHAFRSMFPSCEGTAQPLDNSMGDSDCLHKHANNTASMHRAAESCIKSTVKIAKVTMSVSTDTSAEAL", "test": "Displacement of [3H]SR141716A from CB1 receptor in rat cerebellum membrane", "assay_type": "cell membranes", "units": {"Ki": "nM"}, "values": [
      {"smiles": "CCCCN(CC(=O)N1c2ccccc2-n2cccc2C1c1ccc(OC)cc1)C(=O)C1CCCC1", "note": "(centres undefined)", "Ki": 602},
      {"smiles": "CCCCN(CC(=O)N1c2ccccc2-n2cccc2C1c1ccc(Cl)cc1)C(=O)C(C)Cl", "note": "(centres undefined)", "Ki": 45},
      {"smiles": "CCCCN(CC(=O)N1c2ccccc2-n2cccc2C1c1ccc(OC)cc1)C(=O)C(C)Cl", "note": "(centres undefined)", "Ki": 46},
      {"smiles": "CCCCN(CC(=O)N1c2ccccc2-n2cccc2C1c1ccc(OC)cc1)C(=O)c1ccccc1F", "note": "(centres undefined)", "Ki": 349},
      {"smiles": "CCCCN(CC(=O)N1c2ccccc2-n2cccc2C1c1ccc(OC)cc1)C(=O)CC(C)C", "note": "(centres undefined)", "Ki": 236},
      {"smiles": "COc1ccc(C2c3cccn3-c3ccccc3N2C(=O)CN(C(=O)C(C)Cl)C(C)C)cc1", "note": "(centres undefined)", "Ki": 220},
      {"smiles": "CCCCN(CC(=O)N1c2ccccc2-n2cccc2C1c1ccc(OC)cc1)C(=O)c1ccccc1C", "note": "(centres undefined)", "Ki": 503},
      {"smiles": "CCCCN(CC(=O)N1c2ccccc2-n2cccc2C1c1ccc(OC)cc1)C(=O)c1cc(Cl)cc(Cl)c1", "note": "(centres undefined)", "Ki": 831},
      {"smiles": "CCCCN(CC(=O)N1c2ccccc2-n2cccc2C1c1ccc(OC)cc1)C(=O)c1ccccc1Cl", "note": "(centres undefined)", "Ki": 137},
      {"smiles": "CCCCN(CC(=O)N1c2ccccc2-n2cccc2C1c1ccc(OC)cc1)C(=O)C1CCC1", "note": "(centres undefined)", "Ki": 214},
      {"smiles": "CCCCN(CC(=O)N1c2ccccc2-n2cccc2C1c1ccc(OC)cc1)C(=O)C(C)C", "note": "(centres undefined)", "Ki": 124},
      {"smiles": "CCCCN(CC(=O)N1c2ccccc2-n2cccc2C1c1ccccc1)C(=O)C(C)Cl", "note": "(centres undefined)", "Ki": 260},
      {"smiles": "CCCCN(CC(=O)N1c2ccccc2-n2cccc2C1c1ccc(F)cc1)C(=O)C(C)Cl", "note": "(centres undefined)", "Ki": 162},
      {"smiles": "CCCCN(CC(=O)N1c2ccccc2-n2cccc2C1c1ccc(OC)cc1)C(=O)COC", "note": "(centres undefined)", "Ki": 461},
      {"smiles": "CCCCN(CC(=O)N1c2ccccc2-n2cccc2C1c1ccc(OC)cc1)C(=O)C1CC1", "note": "(centres undefined)", "Ki": 78},
      {"smiles": "CCCCN(CC(=O)N1c2ccccc2-n2cccc2C1c1ccc(OC)cc1)C(=O)CC", "note": "(centres undefined)", "Ki": 539}
    ]},
    {"target": "Cannabinoid receptor 1 (Rattus norvegicus) (UniProt P20272)", "sequence (P20272 whole entry)": "as above", "test": "Displacement of [3H]SR141716A from CB1 receptor in rat cerebellum membrane at 1 uM", "assay_type": "cell membranes", "units": {"inhibition": "%"}, "values": [
      {"smiles": "COc1ccc(C2c3cccn3-c3ccccc3N2C(=O)CN(C)C(=O)C(C)Cl)cc1", "note": "(centres undefined)", "inhibition": 46},
      {"smiles": "CCCCN(CC(=O)N1c2ccccc2-n2cccc2C1c1ccc(OC)cc1)C(C)=O", "note": "(centres undefined)", "inhibition": 31},
      {"smiles": "CCCCN(CC(=O)N1c2ccccc2-n2cccc2C1C)C(=O)C(C)Cl", "note": "(centres undefined)", "inhibition": 15},
      {"smiles": "CCCCN(CC(=O)N1c2ccccc2-n2cccc2C1CC)C(=O)C(C)Cl", "note": "(centres undefined)", "inhibition": 14},
      {"smiles": "COc1ccc(C2c3cccn3-c3ccccc3N2C(=O)CNC(=O)C(C)Cl)cc1", "note": "(centres undefined)", "inhibition": 25},
      {"smiles": "COc1ccc(C2c3cccn3-c3ccccc3N2C(=O)CN(C(=O)C(C)Cl)C2CC2)cc1", "note": "(centres undefined)", "inhibition": 40},
      {"smiles": "CCCCN(CC(=O)N1c2ccccc2-n2cccc2C1c1ccccc1OC)C(=O)C(C)Cl", "note": "(centres undefined)", "inhibition": 36},
      {"smiles": "CCCCN(CC(=O)N1c2ccccc2-n2cccc2C1c1cc(OC)ccc1OC)C(=O)C(C)Cl", "note": "(centres undefined)", "inhibition": 45}
    ]}
  ]
}
